Source: ChEMBL document CHEMBL5143670, “Discovery and preclinical profile of LX-039, a novel indole-based oral selective estrogen receptor degrader (SERD)” (Bioorg Med Chem Lett, 2022)
One block for each compound: values may come before it.

Key:
[1] = Binding affinity to estrogen receptor (unknown origin); parameters: species or system Homo sapiens
[2] = Induction of estrogen receptor degradation in human MCF7 cells incubated for 4 hrs by in-cell Western assay; assay type: cell-based; settings: MCF7, 4 h
[3] = tested on: MCF7; assay: Antiproliferative activity against human MCF7 cells measured after 5 days by CellTiter-GLo luminescent assay; assay type: functional, cell-based; settings: MCF7, 120 h
[4] = In vivo antagonist activity at estrogen receptor in immature CD-IGS rat assessed as inhibition of estradiol-induced uterine growth by measuring uterine wet weight pretreated with compound for 15 mins followed by estradiol addition administered orally for three days and measured on day 4 relative to control; assay type: functional; settings: route po; time 4 day
[5] = Permeability of the compound from apical to basolateral side in human Caco-2 cells; assay type: ADME, cell-based; settings: read-out: permeability
[6] = Protein binding in human plasma assessed as free fraction; assay type: ADME, cell-free
[7] = Toxicity in mouse xenografted with human MCF7 cells assessed as body weight change at 20 mg/kg, po administered once daily for 21 days; assay type: organism-based; settings: in vivo, 504 h, time 21 day
[8] = tested on: MCF7; assay: Antitumor activity against human MCF7 cells xenografted in mouse assessed as tumor growth inhibition at 20 mg/kg, po administered once daily for 21 days; assay type: functional; settings: MCF7, 504 h, time 21 day, read-out: TGI
[9] = Volume of distribution in iv dosed CD-1 mouse; assay type: ADME, organism-based; settings: in vivo
[10] = Cmax in CD-1 mouse at 2.5 mg/kg, po; assay type: ADME, organism-based; parameters: dose 2.5 mg/kg, route po; settings: in vivo
[11] = AUC (0 to 24 hrs) in CD-1 mouse at 2.5 mg/kg, po; assay type: ADME, organism-based; parameters: time < 24 hr, dose 2.5 mg/kg, route po; settings: in vivo; for AUC(0-t) at 24 h: CD-1, mouse
[12] = Oral bioavailability in CD-1 mouse at 2.5 mg/kg; assay type: ADME, organism-based; settings: in vivo; for bioavailability: CD-1, mouse
[13] = Permeability of the compound from basolateral to apical side in human Caco-2 cells; assay type: ADME, cell-based; settings: read-out: permeability
[14] = Efflux ratio of apparent permeability from basolateral to apical side over apical to basolateral side in human Caco-2 cells; assay type: ADME, cell-based
[15] = Metabolic stability in mouse hepatocyte assessed as intrinsic clearance measured per 10^6 cells; assay type: ADME, cell-based; settings: hepatocytes, read-out: CLH
[16] = Metabolic stability in rat hepatocytes assessed as intrinsic clearance measured per million cells; assay type: ADME, cell-based, Hepatocyte; settings: read-out: CLH
[17] = Metabolic stability in dog hepatocytes assessed as intrinsic clearance measured per million cells; assay type: ADME, cell-based, Canis lupus familiaris, Hepatocyte; settings: read-out: CLH
[18] = Metabolic stability in human hepatocytes assessed as intrinsic clearance measured per million cells; assay type: ADME, cell-based, Hepatocyte; settings: read-out: CLH
[19] = molecular target: Cytochrome P450 3A4 (Homo sapiens, UniProt P08684); assay: Inhibition of CYP3A4 (unknown origin) using testosterone as substrate; assay type: ADME
[20] = molecular target: Cytochrome P450 2C9 (Homo sapiens, UniProt P11712); assay: Inhibition of CYP2C9 (unknown origin); assay type: ADME
[21] = molecular target: Cytochrome P450 2C19 (Homo sapiens, UniProt P33261); assay: Inhibition of CYP2C19 (unknown origin); assay type: ADME
[22] = molecular target: Cytochrome P450 2D6 (Homo sapiens, UniProt P10635); assay: Inhibition of CYP2D6 (unknown origin); assay type: ADME
[23] = molecular target: T1, Cytochrome P450 1A2 (Homo sapiens, UniProt P05177); assay: Inhibition of CYP1A2 (unknown origin); assay type: ADME
T1 sequence (P05177 whole entry): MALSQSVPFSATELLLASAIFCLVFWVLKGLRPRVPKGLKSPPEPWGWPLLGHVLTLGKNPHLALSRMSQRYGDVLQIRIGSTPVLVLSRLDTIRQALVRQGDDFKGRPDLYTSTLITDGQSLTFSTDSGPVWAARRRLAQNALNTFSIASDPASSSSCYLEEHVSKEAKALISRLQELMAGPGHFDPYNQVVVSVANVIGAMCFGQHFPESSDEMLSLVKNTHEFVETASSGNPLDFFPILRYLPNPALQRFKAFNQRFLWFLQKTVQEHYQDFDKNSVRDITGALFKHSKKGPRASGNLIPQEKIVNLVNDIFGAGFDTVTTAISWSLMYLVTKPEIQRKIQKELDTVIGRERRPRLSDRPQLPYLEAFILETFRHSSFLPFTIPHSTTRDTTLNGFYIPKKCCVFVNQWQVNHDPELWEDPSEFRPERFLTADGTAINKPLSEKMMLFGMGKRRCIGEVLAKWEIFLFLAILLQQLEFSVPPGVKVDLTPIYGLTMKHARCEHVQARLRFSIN

[24] = tested on: MCF7; assay: Antitumor activity against human MCF7 cells xenografted in mouse assessed as tumor growth inhibition when administered orally once daily for 21 days; assay type: functional, cell-based; settings: dose 6.5-60 mg/kg, route po, time 21.0 day, DDE = dose-dependent effect
[25] = tested on: MCF7; assay: Antitumor activity against human MCF7 cells xenografted in mouse assessed as tumor shrinkage by measuring tumor growth inhibition at 60 mg/kg, po administered once daily for 21 days; assay type: functional; settings: MCF7, 504 h, time 21 day, read-out: TGI
[26] = Toxicity in mouse xenografted with human MCF7 cells assessed as change in body weight at 6.5 to 60 mg/kg, po administered once daily for 21 days; assay type: organism-based; settings: in vivo, 504 h, dose 6.5-60 mg/kg, time 21 day
[27] = tested on: MCF7; assay: Antitumor activity against tamoxifen-resistant human MCF7 cells xenografted in mouse assessed as tumor growth inhibition at 200 mg/kg, po dosed once daily for 21 days relative to control; assay type: functional; settings: MCF7, 504 h, time 21 day, read-out: TGI
[28] = Volume of distribution in iv dosed Sprague-Dawley rat; assay type: ADME, organism-based; settings: in vivo
[29] = Clearance in iv dosed Sprague-Dawley rat; assay type: ADME, organism-based; settings: in vivo
[30] = C0 in Sprague-Dawley rat at 1 mg/kg, iv; assay type: ADME, organism-based; settings: in vivo
[31] = AUC (0 to 24 hrs) in Sprague-Dawley rat at 1 mg/kg, iv; assay type: ADME, organism-based; parameters: time < 24 hr, dose 1 mg/kg, route iv; settings: in vivo
[32] = Cmax in Sprague-Dawley rat at 1 mg/kg, po; assay type: ADME, organism-based; parameters: dose 1 mg/kg, route po; settings: in vivo
[33] = AUC (0 to 24 hrs) in Sprague-Dawley rat at 1 mg/kg, po; assay type: ADME, organism-based; parameters: time < 24 hr, dose 1 mg/kg, route po; settings: in vivo
[34] = Oral bioavailability in Sprague-Dawley rat at 1 mg/kg; assay type: ADME, organism-based; settings: in vivo
[35] = Volume of distribution in iv dosed Beagle dog; assay type: ADME, organism-based, Canis lupus familiaris; settings: in vivo
[36] = Clearance in iv dosed Beagle dog; assay type: ADME, organism-based, Canis lupus familiaris; settings: in vivo
[37] = C0 in Beagle dog at 1 mg/kg, iv; assay type: ADME, organism-based, Canis lupus familiaris; settings: in vivo
[38] = AUC (0 to 24 hrs) in Beagle dog at 1 mg/kg, iv; assay type: ADME, organism-based, Canis lupus familiaris; parameters: time < 24 hr, dose 1 mg/kg, route iv; settings: in vivo
[39] = Cmax in Beagle dog at 1 mg/kg, po; assay type: ADME, organism-based, Canis lupus familiaris; parameters: dose 1 mg/kg, route po; settings: in vivo
[40] = AUC (0 to 24 hrs) in Beagle dog at 1 mg/kg, po; assay type: ADME, organism-based, Canis lupus familiaris; parameters: time < 24 hr, dose 1 mg/kg, route po; settings: in vivo
[41] = Oral bioavailability in Beagle dog at 1 mg/kg; assay type: ADME, organism-based, Canis lupus familiaris; settings: in vivo
[42] = Toxicity in Sprague-Dawley rat assessed as adverse effects at 500 mg/kg, po; assay type: organism-based; settings: in vivo
[43] = Toxicity in Beagle dog assessed as adverse effects at 1000 mg/kg, po; assay type: organism-based, Canis lupus familiaris; settings: in vivo
[44] = Genotoxicity in Salmonella typhimurium by Ames test; assay type: toxicity; settings: salmonella enterica subsp. enterica serovar typhimurium
[45] = Clearance in iv dosed CD-1 mouse; assay type: ADME, organism-based; settings: in vivo
[46] = tested on: MCF7; assay: Antitumor activity against tamoxifen-resistant human MCF7 cells xenografted in mouse assessed as tumor growth inhibition at 3 mg, po dosed once daily for 21 days relative to control; assay type: functional; settings: time 21 day

Chain of Cytochrome P450 2C19 (P33261 whole entry): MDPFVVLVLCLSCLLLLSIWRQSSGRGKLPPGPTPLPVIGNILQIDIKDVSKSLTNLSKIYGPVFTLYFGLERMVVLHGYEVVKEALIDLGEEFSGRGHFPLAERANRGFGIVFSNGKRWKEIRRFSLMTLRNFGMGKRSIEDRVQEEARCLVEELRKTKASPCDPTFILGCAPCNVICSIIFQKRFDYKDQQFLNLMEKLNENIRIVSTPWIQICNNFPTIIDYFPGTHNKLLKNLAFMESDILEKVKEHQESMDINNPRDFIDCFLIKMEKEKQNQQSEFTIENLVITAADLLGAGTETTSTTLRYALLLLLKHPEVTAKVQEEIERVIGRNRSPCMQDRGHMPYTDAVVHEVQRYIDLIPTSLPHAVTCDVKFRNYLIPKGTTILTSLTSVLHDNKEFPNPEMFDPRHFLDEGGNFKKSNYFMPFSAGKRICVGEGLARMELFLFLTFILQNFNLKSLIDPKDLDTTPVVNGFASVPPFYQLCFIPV
Chain of Cytochrome P450 2D6 (P10635 whole entry): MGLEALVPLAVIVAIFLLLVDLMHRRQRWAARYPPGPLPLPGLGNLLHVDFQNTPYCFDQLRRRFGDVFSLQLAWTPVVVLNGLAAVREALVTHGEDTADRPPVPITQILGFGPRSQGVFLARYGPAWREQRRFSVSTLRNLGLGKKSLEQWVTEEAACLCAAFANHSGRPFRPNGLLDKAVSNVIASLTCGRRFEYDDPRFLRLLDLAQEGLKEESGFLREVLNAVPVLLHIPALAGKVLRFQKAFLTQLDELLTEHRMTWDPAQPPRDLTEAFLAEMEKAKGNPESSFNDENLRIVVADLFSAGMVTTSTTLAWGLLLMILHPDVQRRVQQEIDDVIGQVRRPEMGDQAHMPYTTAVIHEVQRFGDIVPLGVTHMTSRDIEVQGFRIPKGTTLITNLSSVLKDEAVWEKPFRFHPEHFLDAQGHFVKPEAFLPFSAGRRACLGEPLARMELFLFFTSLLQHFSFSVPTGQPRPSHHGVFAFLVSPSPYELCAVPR
Chain of Cytochrome P450 3A4 (P08684 whole entry): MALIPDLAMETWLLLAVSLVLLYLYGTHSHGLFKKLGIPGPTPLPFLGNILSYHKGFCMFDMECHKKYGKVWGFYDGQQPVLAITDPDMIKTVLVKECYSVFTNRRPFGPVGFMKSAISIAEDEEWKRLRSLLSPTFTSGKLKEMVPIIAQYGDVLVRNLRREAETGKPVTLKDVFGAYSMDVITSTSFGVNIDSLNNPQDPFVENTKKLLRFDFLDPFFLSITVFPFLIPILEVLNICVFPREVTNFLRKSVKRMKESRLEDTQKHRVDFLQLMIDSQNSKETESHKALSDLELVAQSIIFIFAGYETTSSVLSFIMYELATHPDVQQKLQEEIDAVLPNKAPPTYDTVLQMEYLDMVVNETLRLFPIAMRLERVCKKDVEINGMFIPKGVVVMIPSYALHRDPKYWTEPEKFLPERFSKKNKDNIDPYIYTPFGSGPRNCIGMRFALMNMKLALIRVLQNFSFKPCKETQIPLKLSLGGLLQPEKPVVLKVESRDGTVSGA
Chain of Cytochrome P450 2C9 (P11712 whole entry): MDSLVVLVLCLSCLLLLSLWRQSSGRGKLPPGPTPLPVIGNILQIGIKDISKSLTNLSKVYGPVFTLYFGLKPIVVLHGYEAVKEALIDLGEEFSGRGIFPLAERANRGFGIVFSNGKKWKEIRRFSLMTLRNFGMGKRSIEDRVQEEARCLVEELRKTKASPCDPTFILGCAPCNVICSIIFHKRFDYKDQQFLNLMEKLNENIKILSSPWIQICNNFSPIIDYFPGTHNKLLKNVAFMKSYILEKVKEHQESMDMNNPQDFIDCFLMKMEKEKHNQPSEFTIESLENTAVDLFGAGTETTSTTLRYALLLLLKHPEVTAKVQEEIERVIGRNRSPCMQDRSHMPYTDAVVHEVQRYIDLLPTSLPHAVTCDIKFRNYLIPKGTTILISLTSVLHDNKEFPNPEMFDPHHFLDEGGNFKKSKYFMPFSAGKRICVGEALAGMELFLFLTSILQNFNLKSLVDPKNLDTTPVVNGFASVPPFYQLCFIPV

SMILES: CC/C(=C(/c1ccc(/C=C/C(=O)O)cc1)c1[nH]c2ccccc2c1Cl)c1ccccc1C(F)(F)F
IC50 [1]: 0.82 nM
EC50 [2]: 9.95 nM
IC50 [3]: 13 nM

SMILES: CC/C(=C(/c1ccc(/C=C/C(=O)O)cc1)c1[nH]c2ccccc2c1Cl)c1ccsc1C#N
IC50 [1]: 0.18 nM
EC50 [2]: 2.25 nM
IC50 [3]: 7.56 nM

SMILES: CC/C(=C(/c1ccc(/C=C/C(=O)O)cc1)c1[nH]c2ccccc2c1Cl)c1cc(Cl)sc1Cl
IC50 [1]: 1.79 nM
EC50 [2]: 5.13 nM
IC50 [3]: 20 nM

SMILES: CC/C(=C(/c1ccc(/C=C/C(=O)O)cc1)c1ccc2[nH]ncc2c1)c1ccc(F)cc1Cl [BRILANESTRANT]
inhibition (INH) [4]: 65%

SMILES: CC/C(=C(/c1ccc(/C=C/C(=O)O)cc1)c1cc2ccccc2[nH]1)c1ccc(F)cc1Cl
IC50 [1]: 1.6 nM
EC50 [2]: 39 nM
IC50 [3]: 21 nM

SMILES: C[C@]12CC[C@@H]3c4ccc(O)cc4C[C@@H](CCCCCCCCC[S+]([O-])CCCC(F)(F)C(F)(F)F)[C@H]3[C@@H]1CC[C@@H]2O (stereo not given in full) [FULVESTRANT]
TGI [46]: 66%

Now from value to compound, other results behind:

IC50 [1]: 0.66 nM
EC50 [2]: 2.44 nM
IC50 [3]: 8.53 nM
SMILES: CC/C(=C(/c1ccc(/C=C/C(=O)O)cc1)c1[nH]c2ccccc2c1Br)c1ccc(F)cc1Cl

EC50 [2]: 1.26 nM
IC50 [3]: 4.78 nM
SMILES: CC/C(=C(/c1ccc(/C=C/C(=O)O)cc1)c1[nH]c2ccccc2c1C)c1ccc(F)cc1Cl

Papp A→B [5]: 0.94 ×10⁻⁶ cm/s
fraction unbound [6]: 0.051
IC50 [1]: 0.99 nM
EC50 [2]: 2.29 nM
IC50 [3]: 3.76 nM
Vd [9]: 0.5 L/kg
Cmax [10]: 1870 nM
AUC ([11]; mouse, 24 h): 15.329 µM·h
F ([12]; mouse, po, 2.5 mg/kg): 60.1%
Papp B→A [13]: 1.25 ×10⁻⁶ cm/s
efflux ratio [14]: 1.32
hepatocyte CLint [15]: 9.8 µL/min/1e6 cells
hepatocyte CLint [16]: 11.1 µL/min/1e6 cells
hepatocyte CLint [17]: 8.6 µL/min/1e6 cells
hepatocyte CLint [18]: 15.2 µL/min/1e6 cells
IC50 [19]: 7000 nM
IC50 [20]: 5100 nM
IC50 [21]: 10100 nM
IC50 [22]: 14300 nM
IC50 [23]: 7700 nM
Vd [28]: 2 L/kg
clearance [29]: 7.7 mL/min/kg
C0 [30]: 2610 nM
AUC(0-t) at 24 h [31]: 4.82 µM·h
Cmax [32]: 381 nM
AUC(0-t) at 24 h [33]: 2.7 µM·h
bioavailability [34]: 56%
Vd [35]: 0.42 L/kg
clearance [36]: 0.84 mL/min/kg
C0 [37]: 12800 nM
AUC(0-t) at 24 h [38]: 43.8 µM·h
Cmax [39]: 2550 nM
AUC(0-t) at 24 h [40]: 24.2 µM·h
bioavailability [41]: 55%
SMILES: CC/C(=C(/c1ccc(/C=C/C(=O)O)cc1)c1[nH]c2ccccc2c1Cl)c1ccc(F)cc1Cl
Activity [7]: Non-Toxic
inhibition in vivo at 20 mg/kg [8]: 104%
inhibition [24]: Dde
inhibition in vivo at 60 mg/kg [25]: 113%
Activity [26]: Non-Toxic
inhibition in vivo at 200 mg/kg [27]: 91%
Activity [42]: Non-Toxic
Activity [43]: Non-Toxic
Activity [44]: Non-Toxic
inhibition (INH) [4]: 94%

IC50 [1]: 0.23 nM
EC50 [2]: 0.735 nM
IC50 [3]: 0.97 nM
Vd [9]: 4.48 L/kg
clearance [45]: 29.7 mL/min/kg
Cmax [10]: 246 nM
AUC(0-t) at 24 h [11]: 0.883 µM·h
bioavailability [12]: 33.7%
SMILES: CC/C(=C(/c1ccc(/C=C/C(=O)O)cc1)c1[nH]c2ccccc2c1Cl)c1ccc(Cl)cc1C#N
Activity [7]: Non-Toxic

IC50 [1]: 0.23 nM
EC50 [2]: 2.6 nM
IC50 [3]: 4.85 nM
Vd [9]: 4.28 L/kg
clearance [45]: 104 mL/min/kg
Cmax [10]: 35 nM
AUC(0-t) at 24 h [11]: 0.049 µM·h
bioavailability [12]: 6.21%
SMILES: CC/C(=C(/c1ccc(/C=C/C(=O)O)cc1)c1[nH]c2ccccc2c1C#N)c1ccc(F)cc1Cl
